Assay results: US7998987B2, “Inhibitors of c-Met and uses thereof” (Vertex Pharmaceuticals Incorporated, priority 2005, dated 2011)

Molecular target: c-Met (Homo sapiens, UniProt P08581)
Test: Ki determination for the inhibition of c-Met kinase activity (standard coupled enzyme system)
Assay type: biochemical
Settings: not given
Summary of the method: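 Continuous coupled-enzyme (PK/LDH, NADH depletion) assay with 80 nM c-Met, 200 μM ATP and 10 μM polyGluTyr in 100 mM HEPES pH 7.5, 10 mM MgCl2, 1.5% DMSO at 30 °C.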

Sequence of c-Met (P08581 25-1390): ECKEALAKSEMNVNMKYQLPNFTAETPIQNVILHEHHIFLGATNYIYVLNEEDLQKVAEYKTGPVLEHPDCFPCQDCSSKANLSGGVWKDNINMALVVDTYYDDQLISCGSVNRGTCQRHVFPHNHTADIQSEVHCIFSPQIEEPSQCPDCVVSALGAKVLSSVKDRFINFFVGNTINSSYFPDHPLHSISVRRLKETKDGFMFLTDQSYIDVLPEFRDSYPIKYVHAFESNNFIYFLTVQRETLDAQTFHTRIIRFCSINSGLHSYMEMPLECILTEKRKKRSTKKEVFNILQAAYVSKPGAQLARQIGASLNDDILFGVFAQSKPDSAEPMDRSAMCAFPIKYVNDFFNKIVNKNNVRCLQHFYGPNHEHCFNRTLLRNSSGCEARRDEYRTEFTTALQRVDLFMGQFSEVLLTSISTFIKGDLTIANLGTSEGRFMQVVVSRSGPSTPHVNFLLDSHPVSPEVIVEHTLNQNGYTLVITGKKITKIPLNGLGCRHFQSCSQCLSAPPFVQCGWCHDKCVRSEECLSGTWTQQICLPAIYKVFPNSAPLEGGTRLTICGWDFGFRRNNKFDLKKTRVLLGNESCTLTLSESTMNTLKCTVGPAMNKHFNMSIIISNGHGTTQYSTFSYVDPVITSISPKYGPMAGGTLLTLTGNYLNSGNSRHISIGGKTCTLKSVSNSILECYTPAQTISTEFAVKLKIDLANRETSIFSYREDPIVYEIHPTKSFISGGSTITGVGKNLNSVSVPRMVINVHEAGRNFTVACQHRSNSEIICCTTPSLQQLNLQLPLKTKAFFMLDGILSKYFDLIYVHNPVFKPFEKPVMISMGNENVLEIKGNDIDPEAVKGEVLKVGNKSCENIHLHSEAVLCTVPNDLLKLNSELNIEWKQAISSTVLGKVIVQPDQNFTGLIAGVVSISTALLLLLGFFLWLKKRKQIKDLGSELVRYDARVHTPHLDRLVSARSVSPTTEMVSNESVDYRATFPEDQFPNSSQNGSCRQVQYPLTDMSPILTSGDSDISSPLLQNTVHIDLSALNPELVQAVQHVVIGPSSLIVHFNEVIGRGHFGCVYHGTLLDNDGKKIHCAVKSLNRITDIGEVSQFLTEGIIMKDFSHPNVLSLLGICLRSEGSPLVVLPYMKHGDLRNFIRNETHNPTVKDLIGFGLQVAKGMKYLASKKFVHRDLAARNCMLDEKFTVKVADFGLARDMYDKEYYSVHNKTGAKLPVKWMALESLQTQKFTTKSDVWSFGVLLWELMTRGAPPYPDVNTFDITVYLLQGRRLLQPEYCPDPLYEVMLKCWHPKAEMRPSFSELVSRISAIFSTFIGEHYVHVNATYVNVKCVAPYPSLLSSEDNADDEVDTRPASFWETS

SMILES | Ki [nM]
C[C@@H](c1ccc(OP(=O)(O)O)cc1)c1nnc2sc(Nc3cccc(Cl)c3)nn12 [Compound 170] | 100 to 2000

Same assay, conditions: coupled enzyme system, 200 μM ATP, 80 nM c-Met, 30° C.; read-out: c-Met Ki

Ki [nM] | SMILES
> 2000 | Clc1cccc(Nc2ccc3nnc(COc4ccccn4)n3n2)c1 [Compound 373]
< 100 | CC(c1ccc(O)cc1)c1nnc2n1N=C(c1ccccc1)CS2 (centres unmarked) [Compound 525]
> 2000 | CS(=O)(=O)Nc1ccc(Cc2nnc3ccc(Nc4cccc(Cl)c4)nn23)cc1 [Compound 369]
> 2000 | Clc1cccc(Nc2ccc3nnc(Cn4ncc5ccccc54)n3n2)c1 [Compound 489]
100 to 2000 | CC1=Nn2c(Cc3ccc(O)cc3)nnc2SC1 [Compound 542]
> 2000 | Clc1cccc(Nc2ccc3nnc(COc4ccc(Cl)nc4)n3n2)c1 [Compound 375]
100 to 2000 | CCc1nnc(Nc2ccc3nnc([C@@H](C)c4ccc(O)cc4)n3n2)s1 [Compound 515]
> 2000 | C[C@@H](c1ccc(O)cc1)c1nnc2ccc(Sc3ncc[nH]3)nn12 [Compound 511]
< 100 | CC1CC(Nc2ccc3nnc(Cc4ccc(O)cc4)n3n2)CC(C)(C)C1 (centres unmarked) [Compound 370]
> 2000 | Oc1ccc(Cc2nnc3ccc(Nc4nncs4)nn23)cc1 [Compound 482]
> 2000 | CS(=O)(=O)c1ccc(Cc2nnc3n2N=C(c2ccccc2)CS3)cc1 [Compound 528]
> 2000 | Clc1ccc(OCc2nnc3ccc(Nc4cccc(Cl)c4)nn23)cc1 [Compound 380]
> 2000 | Clc1cccc(Nc2ccc3nnc(Cn4ccc5cccnc54)n3n2)c1 [Compound 462]
> 2000 | Clc1cccc(Nc2ccc3nnc(COc4ccc5nonc5c4)n3n2)c1 [Compound 472]
100 to 2000 | C[C@H](CO)Nc1ccc2nnc(Cc3ccc(O)cc3)n2n1 [Compound 303]
> 2000 | Clc1cccc(Nc2ccc3nnc(COc4c[nH]c5ccccc45)n3n2)c1 [Compound 491]
> 2000 | Clc1cccc(Nc2ccc3nnc(Cn4ccc5cncnc54)n3n2)c1 [Compound 463]
100 to 2000 | COc1ccc(Cc2nnc3n2N=C(c2cccs2)CS3)cc1 [Compound 547]
> 2000 | COCCC(=O)N[C@@H]1CCCC[C@@H]1Nc1ccc2nnc([C@@H](C)c3ccc(O)cc3)n2n1 [Compound 445]
100 to 2000 | Oc1ccc(Cc2nnc3ccc(NC4CCC4)nn23)cc1 [Compound 330]
> 2000 | COc1ccc(Cc2nnc3n2N=C(c2ccccc2)CS3)cc1F [Compound 531]
> 2000 | COCCC(=O)N[C@@H]1CCCC[C@H]1Nc1ccc2nnc([C@@H](C)c3ccc(O)cc3)n2n1 [Compound 451]
> 2000 | Clc1cccc(Nc2ccc3nnc(CNc4ccc5cc[nH]c5c4)n3n2)c1 [Compound 477]
100 to 2000 | Oc1ccc(Cc2nnc3ccc(N4CCc5ccccc5C4)nn23)cc1 [Compound 422]

Ki [nM] | SMILES
< 100 | C[C@@H](c1ccc(O)cc1)c1nnc2ccc(NC3CCCCC3)nn12 [Compound 419]
> 2000 | Clc1cccc(Nc2ccc3nnc(CNc4ncccn4)n3n2)c1 [Compound 414]
100 to 2000 | Oc1ccc(Cc2nnc3n2N=C(c2c[nH]c4ncccc24)CS3)cc1 [Compound 524]
> 2000 | O=C(O)c1cc(O)ccc1NCc1nnc2ccc(Nc3cccc(Cl)c3)nn12 [Compound 340]
< 100 | COc1ccc(Cc2nnc3ccc(Nc4ccc(F)c(Cl)c4)nn23)cc1 [Compound 425]
< 100 | Oc1ccc(Cc2nnc3n2N=C(c2ccccc2)CS3)cc1 [Compound 522]
< 100 | Oc1ccc(Cc2nnc3ccc(Nc4cc(Cl)ccc4F)nn23)cc1 [Compound 359]
100 to 2000 | C[C@H](Nc1ccc2nnc(Cc3ccc(O)cc3)n2n1)c1ccccc1 [Compound 310]
> 2000 | CN(C)S(=O)(=O)Nc1cccc(Cc2nnc3ccc(Nc4cccc(Cl)c4)nn23)c1 [Compound 404]
> 2000 | Cc1ccc(OCc2nnc3ccc(Nc4cccc(Cl)c4)nn23)cn1 [Compound 372]
100 to 2000 | Clc1cccc(Nc2ccc3nnc(Cn4cncn4)n3n2)c1 [Compound 517]
> 2000 | N#Cc1ccc(OCc2nnc3ccc(Nc4cccc(Cl)c4)nn23)c(N)c1 [Compound 430]
> 2000 | O=[N+]([O-])c1ccc(Cc2nnc3ccc(Nc4cccc(Cl)c4)nn23)cc1 [Compound 475]
100 to 2000 | CC(=O)N[C@@H]1CCCC[C@@H]1Nc1ccc2nnc([C@@H](C)c3ccc(O)cc3)n2n1 [Compound 444]
> 2000 | Clc1cccc(Nc2ccc3nnc(CNc4cccc5[nH]ccc45)n3n2)c1 [Compound 464]
100 to 2000 | CCOC(=O)N1CCC(Nc2ccc3nnc(Cc4ccc(O)cc4)n3n2)CC1 [Compound 306]
> 2000 | Oc1ccc2c(ccn2Cc2nnc3ccc(Nc4cccc(Cl)c4)nn23)c1 [Compound 435]
100 to 2000 | Clc1cccc(Nc2ccc3nnc(COc4cccnc4Cl)n3n2)c1 [Compound 374]
> 2000 | N#CCc1ccc(OCc2nnc3ccc(Nc4cccc(Cl)c4)nn23)cc1 [Compound 382]
< 100 | CC(c1ccc(F)cc1)c1nnc2ccc(Nc3cccc(Cl)c3)nn12 (centres unmarked) [Compound 493]
> 2000 | Clc1cccc(Nc2ccc3nnc(CSc4ccccc4Cl)n3n2)c1 [Compound 389]
> 2000 | O=C(Cc1ccccc1)N1CCCC(Nc2ccc3nnc(Cc4ccc(O)cc4)n3n2)C1 (centres unmarked) [Compound 328]
< 100 | Oc1ccc(Cc2nnc3ccc(Nc4cc(Cl)cc(Cl)c4)nn23)cc1 [Compound 294]
100 to 2000 | COC(=O)c1c(O)cccc1NCc1nnc2ccc(Nc3cccc(Cl)c3)nn12 [Compound 332]

Same assay, conditions: coupled enzyme system, 200 μM ATP, 10 μM polyGluTyr, 80 nM c-Met, 30° C.; read-out: c-Met Ki

Ki [nM] | SMILES
> 2000 | Clc1ccc(Cc2nnc3sc(Nc4cccc(Cl)c4)nn23)cc1 [Compound 91]
< 100 | Fc1cccc(Nc2nn3c(Cc4ccc5c(c4)OCO5)nnc3s2)c1 [Compound 107]
> 2000 | COc1ccc(Cc2nnc3ccc(-c4ccccc4)nn23)cc1OC [Compound 206, 3-(3,4-dimethoxybenzyl)-6-phenyl-[1,2,4]triazolo[4,3-b]pyridazine]
< 100 | Oc1ccc(Cc2nnc3ccc(Nc4cccc(Cl)c4)nn23)cc1Cl [Compound 237]
> 2000 | Cc1cccc(Nc2ccc3nnc(Cc4ccncc4)n3n2)c1 [Compound 231]
100 to 2000 | CC1CCC(Nc2ccc3nnc(Cc4ccc(O)cc4)n3n2)CC1 (centres unmarked) [Compound 271]
100 to 2000 | Oc1ccc(Cc2nnc3sc(Nc4cccc(Cl)c4F)nn23)cc1F [Compound 130]
100 to 2000 | Oc1ccc(Cc2nnc3ccc(NCc4ccccc4)nn23)cc1 [Compound 277]
< 100 | Oc1ccc(Cc2nnc3sc(Nc4cccc(F)c4)nn23)cc1 [Compound 59]
100 to 2000 | Oc1ccc(Cc2nnc3ccc(NC4CCCC4)nn23)cc1 [Compound 269]
100 to 2000 | CN(c1ccc2nnc(Cc3ccc(O)cc3)n2n1)C1CCCCC1 [Compound 196]
< 100 | Clc1cccc(Nc2ccc3nnc(Cc4ccc5c(c4)OCO5)n3n2)c1 [Compound 239]
100 to 2000 | OCc1cccc(Nc2ccc3nnc(Cc4ccc5c(c4)OCO5)n3n2)c1 [Compound 263]
100 to 2000 | CCC(C)c1ccc(Nc2ccc3nnc(Cc4ccc(O)cc4)n3n2)cc1 (centres unmarked) [Compound 183]
> 2000 | O=C(Nc1cccc(Cl)c1)Nc1nn2c(Cc3ccc(O)cc3)nnc2s1 [Compound 112]
100 to 2000 | COc1cccc(Nc2nn3c(Cc4ccc(O)c(OC)c4)nnc3s2)c1 [Compound 38]
100 to 2000 | COc1ccccc1Nc1nn2c(Cc3ccc(O)c(Cl)c3)nnc2s1 [Compound 31]
< 100 | COc1ccc(Cc2nnc3ccc(Nc4cc(F)cc(F)c4)nn23)cc1 [Compound 252]
< 100 | OCCc1cccc(Nc2ccc3nnc(Cc4ccc(O)cc4)n3n2)c1 [Compound 264]
> 2000 | COc1ccc(Cc2nnc3sc(C4CCCCN4)nn23)cc1 (centres unmarked) [Compound 24]

Ki [nM] | SMILES
100 to 2000 | COc1ccc(Cc2nnc3sc(-c4cccs4)nn23)cc1 [Compound 22]
> 2000 | Oc1ccc(Cc2nnc3ccc(N4CCC[C@H]4CN4CCCC4)nn23)cc1 [Compound 200]
100 to 2000 | Fc1c(Cl)cccc1Nc1nn2c(Cc3ccc4c(c3)OCO4)nnc2s1 [Compound 126]
100 to 2000 | OCc1cccc(Nc2ccc3nnc(Cc4ccc(O)c(F)c4)n3n2)c1 [Compound 260]
100 to 2000 | COc1cccc(Nc2nn3c(Cc4ccc(O)c(F)c4)nnc3s2)c1 [Compound 35]
100 to 2000 | FC(F)(F)c1cccc(Nc2ccc3nnc(Cc4ccncc4)n3n2)c1 [Compound 227]
< 100 | CC(C)Oc1cccc(Nc2ccc3nnc(Cc4ccc(O)cc4)n3n2)c1 [Compound 181]
> 2000 | COc1ccc(Cc2nnc3sc(-c4ccccc4)nn23)cc1 [Compound 3]
> 2000 | Oc1ccc(Cc2nnc3ccc(N4CCC(c5ccccc5)C4)nn23)cc1 (centres unmarked) [Compound 201]
100 to 2000 | Cc1cc(F)ccc1Nc1nn2c(Cc3ccc(O)cc3)nnc2s1 [Compound 76]
100 to 2000 | Nc1nn2c(Cc3ccc(O)cc3)nnc2s1 [Compound 7]
100 to 2000 | COc1ccc(Cc2nnc3ccc(Nc4cccc(C)c4)nn23)cc1 [Compound 229]
100 to 2000 | CN(C)c1ccc(Nc2nn3c(Cc4ccc(O)cc4)nnc3s2)cc1 [Compound 74]
100 to 2000 | Oc1ccc(Cc2nnc3ccc(NCC4CCCO4)nn23)cc1 (centres unmarked) [Compound 187]
< 100 | Oc1ccc(Cc2nnc3sc(Nc4cc(F)cc(F)c4)nn23)cc1F [Compound 131]
100 to 2000 | Cc1cccc(Nc2ccc3nnc(Cc4ccc5c(c4)OCO5)n3n2)c1 [Compound 230]
> 2000 | Oc1ccc(Cc2nnc3sc(Nc4ccc5nsnc5c4)nn23)cc1 [Compound 70]
> 2000 | CC(Oc1ccc2cccnc2c1)c1nnc2sc(Nc3cccc(Cl)c3)nn12 (centres unmarked) [Compound 164]
< 100 | Oc1ccc(Cc2nnc3ccc(Nc4cccc(C(F)(F)F)c4)nn23)cc1Cl [Compound 224]
< 100 | Oc1ccc(Cc2nnc3sc(Nc4cccc(Cl)c4Cl)nn23)cc1 [Compound 45]
